ChEMBL document CHEMBL1909046, “DrugMatrix in vitro pharmacology data”

How the values were obtained:
[1] = DRUGMATRIX: ATPase, Na+/K+ enzyme inhibition (substrate: ATP); type: tissue-based, Sus scrofa, Heart; conditions: Not Active = under 50% inhibition at 10 µM
[2] = biological target: Sodium-dependent noradrenaline transporter (Homo sapiens, UniProt P23975); assay: DRUGMATRIX: Norepinephrine Transporter radioligand binding (ligand: [125I] RTI-55); type: cell membranes, MDCK, Membrane; conditions: Not Active = under 50% inhibition at 10 µM
Sodium-dependent noradrenaline transporter, sequence (P23975 whole entry): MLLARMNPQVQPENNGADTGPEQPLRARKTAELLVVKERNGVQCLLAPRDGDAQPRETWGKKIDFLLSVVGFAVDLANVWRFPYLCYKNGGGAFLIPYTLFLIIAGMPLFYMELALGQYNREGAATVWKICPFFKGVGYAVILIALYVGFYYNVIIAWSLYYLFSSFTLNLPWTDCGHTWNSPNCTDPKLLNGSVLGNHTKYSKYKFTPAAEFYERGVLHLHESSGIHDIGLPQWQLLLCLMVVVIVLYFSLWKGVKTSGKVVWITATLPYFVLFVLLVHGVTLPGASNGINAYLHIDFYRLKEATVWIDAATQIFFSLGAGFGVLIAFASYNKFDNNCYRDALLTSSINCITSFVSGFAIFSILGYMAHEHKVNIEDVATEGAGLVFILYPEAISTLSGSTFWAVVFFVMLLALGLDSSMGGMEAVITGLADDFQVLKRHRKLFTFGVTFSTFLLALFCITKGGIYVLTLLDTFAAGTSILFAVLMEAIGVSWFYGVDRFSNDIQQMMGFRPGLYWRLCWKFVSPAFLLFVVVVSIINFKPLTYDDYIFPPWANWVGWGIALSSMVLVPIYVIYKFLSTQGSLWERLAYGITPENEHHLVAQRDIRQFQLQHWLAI

[3] = biological target: Epidermal growth factor receptor (Homo sapiens, UniProt P00533); assay: DRUGMATRIX: Protein Tyrosine Kinase, EGF Receptor enzyme inhibition (substrate: Poly(Glu:Tyr)); type: cell-based, Insect cells; conditions: Not Active = under 50% inhibition at 10 µM
Epidermal growth factor receptor, sequence (P00533 whole entry): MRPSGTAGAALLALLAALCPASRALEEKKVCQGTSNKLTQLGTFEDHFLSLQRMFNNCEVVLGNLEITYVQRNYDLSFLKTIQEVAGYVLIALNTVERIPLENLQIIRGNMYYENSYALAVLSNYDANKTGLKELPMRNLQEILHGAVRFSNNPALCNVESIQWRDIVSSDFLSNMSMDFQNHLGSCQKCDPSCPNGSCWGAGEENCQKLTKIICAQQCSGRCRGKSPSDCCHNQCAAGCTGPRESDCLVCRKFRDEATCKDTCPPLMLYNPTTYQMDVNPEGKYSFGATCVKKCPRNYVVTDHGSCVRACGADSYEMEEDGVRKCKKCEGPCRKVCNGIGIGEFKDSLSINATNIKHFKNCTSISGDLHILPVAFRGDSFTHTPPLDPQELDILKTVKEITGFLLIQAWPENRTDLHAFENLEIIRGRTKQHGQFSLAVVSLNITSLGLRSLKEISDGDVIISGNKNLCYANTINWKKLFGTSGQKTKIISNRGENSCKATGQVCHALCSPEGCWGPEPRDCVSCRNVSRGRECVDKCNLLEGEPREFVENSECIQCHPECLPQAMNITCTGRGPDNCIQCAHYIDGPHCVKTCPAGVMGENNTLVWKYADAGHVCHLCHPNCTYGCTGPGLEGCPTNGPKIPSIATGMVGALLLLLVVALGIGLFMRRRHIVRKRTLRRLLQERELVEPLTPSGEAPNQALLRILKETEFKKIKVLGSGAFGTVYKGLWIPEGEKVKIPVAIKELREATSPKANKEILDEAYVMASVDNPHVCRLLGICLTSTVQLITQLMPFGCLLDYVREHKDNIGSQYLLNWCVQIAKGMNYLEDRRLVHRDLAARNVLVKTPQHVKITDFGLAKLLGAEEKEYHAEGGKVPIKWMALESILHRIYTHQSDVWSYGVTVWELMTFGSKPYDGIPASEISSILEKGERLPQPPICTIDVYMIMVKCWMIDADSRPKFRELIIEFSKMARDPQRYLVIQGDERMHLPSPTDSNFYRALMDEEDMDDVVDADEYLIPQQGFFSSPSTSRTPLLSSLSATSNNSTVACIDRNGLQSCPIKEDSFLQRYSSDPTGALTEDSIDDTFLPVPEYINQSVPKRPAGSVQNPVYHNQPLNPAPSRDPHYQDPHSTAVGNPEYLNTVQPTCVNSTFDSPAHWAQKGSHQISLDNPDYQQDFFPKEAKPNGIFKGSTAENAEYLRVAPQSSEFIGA

[4] = DRUGMATRIX: Potassium Channel [KATP] radioligand binding (ligand: [3H] Glyburide); type: cell membranes, Membrane; conditions: hit-t15; Not Active = under 50% inhibition at 10 µM
[5] = DRUGMATRIX: Nicotinic Acetylcholine radioligand binding (ligand: [125I] Epibatidine); type: cell membranes, Membrane; conditions: imr-32; Not Active = under 50% inhibition at 10 µM
Interstitial collagenase = biological target: T1, Interstitial collagenase (Homo sapiens, UniProt P03956); type: tissue-based, Rheumatoid synovial fibroblasts;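 note: MMP-1 enzyme inhibition assay using a peptide substrate; in other assays of this panel Not Active means under 50% inhibition at 10 µM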
T1 sequence (P03956 whole entry): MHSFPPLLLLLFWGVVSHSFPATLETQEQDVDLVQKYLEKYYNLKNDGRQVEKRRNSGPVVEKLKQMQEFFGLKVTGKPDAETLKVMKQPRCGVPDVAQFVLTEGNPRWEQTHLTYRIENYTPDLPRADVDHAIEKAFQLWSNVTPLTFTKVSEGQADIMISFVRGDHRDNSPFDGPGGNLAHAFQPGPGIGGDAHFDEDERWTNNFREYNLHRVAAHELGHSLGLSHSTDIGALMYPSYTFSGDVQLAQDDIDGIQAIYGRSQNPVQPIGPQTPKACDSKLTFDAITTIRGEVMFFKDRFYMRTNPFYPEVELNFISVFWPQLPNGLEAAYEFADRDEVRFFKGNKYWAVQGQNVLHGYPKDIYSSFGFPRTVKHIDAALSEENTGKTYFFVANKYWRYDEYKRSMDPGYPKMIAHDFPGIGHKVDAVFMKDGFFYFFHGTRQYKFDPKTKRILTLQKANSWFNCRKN

[6] = biological target: T2, Type-2 angiotensin II receptor (Homo sapiens, UniProt P50052); type: cell-based; conditions: cho-k1; note: in other assays of this panel Not Active means under 50% inhibition at 10 µM
T2 sequence (P50052 whole entry): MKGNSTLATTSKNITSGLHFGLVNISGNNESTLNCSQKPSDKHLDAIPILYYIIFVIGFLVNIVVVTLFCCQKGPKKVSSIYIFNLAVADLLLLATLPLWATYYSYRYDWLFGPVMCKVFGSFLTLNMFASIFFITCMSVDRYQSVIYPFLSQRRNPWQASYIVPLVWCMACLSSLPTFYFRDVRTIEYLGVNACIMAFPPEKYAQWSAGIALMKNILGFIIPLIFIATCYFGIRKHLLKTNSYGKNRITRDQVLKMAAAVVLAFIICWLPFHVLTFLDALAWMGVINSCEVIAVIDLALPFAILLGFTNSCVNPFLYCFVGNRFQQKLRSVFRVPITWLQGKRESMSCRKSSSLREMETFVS

| Compound | IC50 [1] | Ki [1] | IC50 ([2]; mdck) | IC50 ([3]; insect cells) | IC50 [4] | Ki [4] | IC50 [5] | Ki [5] | IC50 (Interstitial collagenase) | IC50 [6] | IC50 ([2]; read-out: IC50) [nM] | Ki ([2]; read-out: Ki) [nM] | IC50 ([3]; read-out: IC50) [µM] |
| --- | --- | --- | --- | --- | --- | --- | --- | --- | --- | --- | --- | --- | --- |
| O=P1(N(CCCl)CCCl)NCCCO1 (stereo unspecified) [CYCLOPHOSPHAMIDE ANHYDROUS] | Not Active | Not Active | Not Active | Not Active | Not Active | Not Active | Not Active | Not Active | Not Active | Not Active | – | – | – |
| CC(=O)O[C@]1(C(C)=O)CC[C@H]2[C@@H]3C=C(Cl)C4=CC(=O)[C@@H]5C[C@@H]5[C@]4(C)[C@H]3CC[C@@]21C [CYPROTERONE ACETATE] | Not Active | Not Active | Not Active | Not Active | Not Active | Not Active | Not Active | Not Active | Not Active | Not Active | – | – | – |
| Nc1nc(N)nc(NC2CC2)n1 [CYROMAZINE] | Not Active | Not Active | Not Active | Not Active | Not Active | Not Active | Not Active | Not Active | Not Active | Not Active | – | – | – |
| CCN[C@@H](C)Cc1cccc(C(F)(F)F)c1 [DEXFENFLURAMINE] | Not Active | Not Active | Not Active | Not Active | Not Active | Not Active | Not Active | Not Active | Not Active | Not Active | – | – | – |
| C[C@H](C(=O)O)c1cccc(C(=O)c2ccccc2)c1 [DEXKETOPROFEN] | Not Active | Not Active | Not Active | Not Active | Not Active | Not Active | Not Active | Not Active | Not Active | Not Active | – | – | – |
| CN1C(=O)CN=C(c2ccccc2)c2cc(Cl)ccc21 [DIAZEPAM] | Not Active | Not Active | Not Active | Not Active | Not Active | Not Active | Not Active | Not Active | Not Active | Not Active | – | – | – |
| CN1C[C@H](C(=O)N[C@]2(C)O[C@@]3(O)[C@@H]4CCCN4C(=O)[C@H](Cc4ccccc4)N3C2=O)C[C@@H]2c3cccc4[nH]cc(c34)C[C@H]21 [DIHYDROERGOTAMINE] | Not Active | Not Active | Not Active | Not Active | Not Active | Not Active | Not Active | Not Active | Not Active | Not Active | – | – | – |
| Cc1c(N(C)CS(=O)(=O)[O-])c(=O)n(-c2ccccc2)n1C.[Na+] [DIPYRONE SODIUM] | Not Active | Not Active | Not Active | Not Active | Not Active | Not Active | Not Active | Not Active | Not Active | Not Active | – | – | – |
| CC(CCc1ccc(O)cc1)NCCc1ccc(O)c(O)c1 (stereo unspecified) [DOBUTAMINE] | Not Active | Not Active | – | – | Not Active | Not Active | Not Active | Not Active | Not Active | Not Active | 383 | 380 | 5.55 |
| CCn1cc(C(=O)O)c(=O)c2cc(F)c(N3CCNCC3)nc21 [ENOXACIN] | Not Active | Not Active | Not Active | Not Active | Not Active | Not Active | Not Active | Not Active | Not Active | Not Active | – | – | – |
| CCC(=O)O[C@H]1[C@H](O[C@@H]2[C@@H](C)[C@H](O[C@H]3C[C@@](C)(OC)[C@@H](O)[C@H](C)O3)[C@@H](C)C(=O)O[C@H](CC)[C@@](C)(O)[C@H](O)[C@@H](C)C(=O)[C@H](C)C[C@@]2(C)O)O[C@H](C)C[C@@H]1N(C)C [ERYTHROMYCIN PROPIONATE] | Not Active | Not Active | Not Active | Not Active | Not Active | Not Active | Not Active | Not Active | Not Active | Not Active | – | – | – |
| C=C(CC)C(=O)c1ccc(OCC(=O)O)c(Cl)c1Cl [ETHACRYNIC ACID] | Not Active | Not Active | Not Active | Not Active | Not Active | Not Active | Not Active | Not Active | Not Active | Not Active | – | – | – |
